The text below walks through data of article PMC12648101, “Targeting SARS-CoV-2 main protease for the discovery of a broad-spectrum COVID-19 inhibitor by intensive multi-tiered validation” (Acta Pharmaceutica Sinica. B, 2025).

The test system of series [1] is SARS-CoV-2 Omicron BA.2.3. The experiment in a line: microbe, parasite or virus in culture. It counts as cell-based. The conditions noted are these: Severe acute respiratory syndrome coronavirus 2, Vero C1008, 48 h.
In a further series the test system is SARS-CoV-2 Omicron BA.5. Put plainly: microbe, parasite or virus in culture. It counts as cell-based. The following applies: Severe acute respiratory syndrome coronavirus 2, Vero C1008, 48 h.
For another series, the system named is E166V mutation of M^pro. The conditions noted are these: E166V mutant vs wild-type M^pro; cited from earlier work.
Another series deals with SARS-CoV-2 Delta. Put plainly: microbe, parasite or virus in culture. The conditions noted are these: Severe acute respiratory syndrome coronavirus 2, Vero C1008, 48 h. It counts as cell-based.
Series [2] is described as follows: Solubility of the dosing preparation at the effective dose. It counts as physicochemical. The conditions noted are these: 300 mg/kg dose, saline with 5% DMSO. The procedure: In vivo, a total of 20 female K18-hACE2 transgenic mice aged 8 weeks were obtained from GemPharmatech (Nanjing, China), which were classified into four groups with five mice in each group: Group 1 served as the untreated, infected control (Virus group); Group 2 received 300 mg/kg of PF-07321332 as the positive control; and Groups 3 and 4 were administered CHLA at doses of 150 and 300 mg/kg, respectively. On Day 0, these K18-hACE2 mice were intranasally inoculated with 1000 FFU of SARS-CoV-2 WT, which was pre-diluted in 50 μL of DMEM. The therapeutic administration was commenced 2 h after infection. The K18-hACE2 transgenic mice were orally administered with either PF-07321332 (300 mg/kg) or CHLA at varying doses (150 and 300 mg/kg), which were dissolved in a saline solution containing 5% DMSO. The mice were euthanized three days post-administration, and the lungs were collected and placed in 1 mL PBS and preserved at −80 °C to evaluate pulmonary virus titers.

Series [3] has as its system SARS-CoV-2 Omicron BA.1.1. The experiment in a line: microbe, parasite or virus in culture. It counts as cell-based. The conditions noted are these: Severe acute respiratory syndrome coronavirus 2, Vero C1008, 48 h.
For series [4], the system named is SARS-CoV-2 WT. Put plainly: Antiviral CPE assay in infected Vero E6 cells. The series is classed as cell-based. The conditions noted are these: Severe acute respiratory syndrome coronavirus 2, Vero C1008, Vero E6, MOI 0.01, 48 h.
In series [5] the test system is SARS-CoV-2 WT. The series is classed as in vivo, K18-hACE2 transgenic mice. The following applies: for body weight of infected mice: 1000 FFU SARS-CoV-2 WT; for lung live viral titers vs Virus group: three days post-infection.
A further series deals with SARS-CoV-2 Omicron BA.4. The experiment in a line: microbe, parasite or virus in culture. The series is classed as cell-based. The conditions noted are these: Severe acute respiratory syndrome coronavirus 2, Vero C1008, 48 h.
In the next series the test system is Caco-2 cells. Put plainly: Caco-2 bidirectional permeability assay. It counts as in vitro ADME. In general terms: Caco-2 cells form a polarised layer with tight junctions and transporters.
Series [6] in a line: Caco-2 bidirectional permeability assay. The following applies: human, pH 7.4. It counts as in vitro ADME.
A short description of series [7]: Pharmacokinetic study in rats (LC-MS/MS). It counts as in vivo, Sprague–Dawley (SD) rats. The following applies: male, Sprague-Dawley, plasma, rat. The procedure: The PK study was strictly conducted according to the National Medical Products Administration (NMPA) Good Laboratory Practice (GLP) guidelines, which was undertaken at the Animal Center of Tianjin University of Traditional Chinese Medicine. Sprague–Dawley (SD) rats were supplied by Beijing Vital River Laboratory Animal Technology Co., Ltd. (Beijing, China). Male SD rats (n = 5 per group, weights: 180–200 g and age: 6–8 weeks) were administered by CHLA (solubilized in DMSO: 0.9% NaCl = 5:95, v/v) at doses of 10 and 5 mg/kg via intragastric (i.g.) and intravenous (i.v.) routes, respectively. Blood samples were collected at specified intervals post-administration (0.033, 0.083, 0.166, 0.25, 0.5, 1, 4, 6, 8, 12, 24, 36, and 48 h), followed by centrifugation at 4000 rpm (Thermo Scientific Sorvall ST 40R Centrifuge, Osterode, Germany) and 4 °C for 10 min. The supernatant plasma was stored at −20 °C for subsequent analysis.
Analysis was performed on a Shimadzu LC-20AD Prominence Liquid Chromatograph (Shimadzu Corporation, Japan)–AB Sciex API […] mass spectrometer (Applied Biosystems, USA) (LC–MS/MS). Samples were separated on an Agilent Poroshell 120 EC-C18 column (2.7 μm, 3.0 mm × 50 mm) (Agilent, USA). The column temperature was 35 °C, and the mobile phase consisted of water with 0.1% formic acid (v/v, buffer A) and acetonitrile with 0.1% formic acid (v/v, buffer B). The elution was conducted according to a 5-min gradient program (0–0.5 min, 10% buffer B; 0.5–2 min, 10%–90% buffer B; 2–3.5 min, 90% buffer B; 3.5–5 min, 10% buffer B), with the flow rate set at 0.5 mL/min and the injection volume at 10 μL. The mass spectrometry operated in positive MRM mode, targeting the precursor and product ions of CHLA (m/z 953.3 →301.1 and 953.3 →275.1, respectively). Tolbutamide served as the internal standard (IS), with precursor and product ions at 269.1 →170.1. The parameters were analyzed by […] via DAS 3.2.8 software. The regression equation for CHLA, based on the peak area ratio of CHLA to IS against the concentration, was (Eq. (1)):(1) y=0.0000796x+0.000162(r=0.9968) indicating a strong correlation.

Series [8] is described as follows: Cell viability assay (CCK-8). It counts as cell-based. The following applies: African green monkey; Vero E6 cells, CCK8, 48 h. The procedure: Cell viability was assessed using the Cell Counting Kit-8 assay (CCK-8, MedChemExpress, China). In brief, Vero E6 cells (ATCC, CRL-1586) at a density of 5 × 10^4 cells/well were seeded into 96-well plates for 24 h. Cells were cultured in Dulbecco's modified Eagle's medium (DMEM) (Gibco, USA), supplemented with 10% (v/v) serum, 100 U/mL penicillin, and 100 μg/mL streptomycin. Serial dilutions of CHLA (200 μL) at concentrations of 100, 80, 60, 40, 20, 10, and 5 μmol/L were added to wells and incubated for another 24 or 48 h, respectively. Following the incubation, the existing medium was replaced with fresh medium containing a 10% CCK-8 solution and incubated at 37 °C for 1 h. Absorbance at 450 nm was measured using a Microplate Reader (TECAN Sunrise™) to determine the final optical density. Data were analyzed using GraphPad Prism 8.0 software (version 8.0). All experiments were performed in triplicate to ensure reliability.

Series [9] in a line: Acute toxicity test in mice. It counts as in vivo, C57BL/6 mice. The following applies: 200 and 500 mg/kg, i.g. The procedure:
Specific-pathogen-free (SPF) C57BL/6 mice were used, balanced for gender, with males and females weighing 18–20 g. The Institutional Committee approved all animal experiment procedures in this study for Animal Care and Biosafety at the Animal Center, Tianjin University of Traditional Chinese Medicine. CHLA was weighed and subsequently dissolved in a 5% DMSO solution, which was then diluted with normal saline (0.9% sodium chloride solution) and mixed to achieve the desired concentration. To evaluate CHLA's acute toxicity, mice were randomly allocated into three groups (n = 10): a control group administered normal saline, and two treatment groups administered CHLA solution at 200 and 500 mg/kg, respectively. We monitored all mice that occurred twice daily over 14 days, focusing on toxicological signs, changes in body weight, and behavioral abnormalities. Upon concluding the study, specimens from blood, heart, liver, spleen, lung, and kidney were harvested for analysis.

Entries after “also recorded” stand apart in the source; their conditions may differ. Where two headings read alike, the source gives them in different places. Some results are limits rather than exact numbers.

Broadly, the EC50 is the concentration at which the effect is half-maximal. The low end stands for higher potency in that assay, the high end for lower potency in that assay. As for `CC(C)(C)[C@H](NC(=O)C(F)(F)F)C(=O)N1C[C@H]2[C@@H]([C@H]1C(=O)N[C@H](C#N)C[C@@H]1CCNC1=O)C2(C)C` [PF-07321332, reference compound], the EC50 worked out at 40 nM in series [1]; 40 nM in the series on SARS-CoV-2 Omicron BA.5; 50 nM in the series on SARS-CoV-2 Delta; 50 nM in series [3]; 30 nM with SARS-CoV-2 WT [4]; 80 nM in the series with SARS-CoV-2 Omicron BA.4. Besides, in the series on E166V mutation of M^pro, the “loss of inhibitory efficacy caused by the E166V mutation” value is listed as “over 200 fold”. In addition, the “solubility at the effective dose” value in [2] is “poor solubility”. Also, the “body weight of infected mice” value with SARS-CoV-2 WT [5] (300 mg/kg oral) is listed as “weight recovery”. The “lung live viral titers vs Virus group” value in the series with SARS-CoV-2 WT [5] (300 mg/kg oral) was “significant decrease”.
The term Papp A→B denotes how fast a substance crosses the layer from the apical side. High values mean fast passage, low ones slow passage. As a reminder, the Papp B→A is the apparent permeability from the basolateral to the apical side of a cell layer. Usually efflux ratio stands for the permeability from basolateral to apical divided by that in the opposite direction, in the common usage. As usually defined, the AUC(0-t) is the area under the concentration-time curve up to a stated or last time point. The low end stands for low exposure, the high end for high exposure. One may read the Cmax as the highest concentration seen after dosing. The Tmax is the time at which the peak concentration occurs. One may read the half-life as how long it takes for the measured level to halve. Broadly, the bioavailability is dose-corrected exposure relative to a reference, in per cent. What is called CC50 is the concentration that lowers cell viability or growth by half. Higher therefore signals lower toxicity to the cells. Consider `O=C(O)C[C@@H]1C(=O)O[C@H]2[C@@H]3OC(=O)c4cc(O)c(O)c(O)c4-c4c(cc(O)c(O)c4O)C(=O)OC[C@H]2O[C@@H](OC(=O)c2cc(O)c(O)c(O)c2)[C@@H]3OC(=O)c2cc(O)c(O)c3c2[C@H]1[C@H](O)C(=O)O3` [CHLA, chebulagic acid], for which the “membrane permeability, in words” value in the series with Caco-2 cells (Caco-2, 5 μmol/L) is “moderate membrane permeability”. Besides, in the series with Caco-2 cells (Caco-2, 5 µmol/L, Table S3), the “Papp (A–B)” value is recorded as 1.20 10-6, cm/s and the “Papp (B–A)” value is 0.39 10-6, cm/s. Also, in series [6] (Caco-2, 5 μmol/L), the Papp A→B at 2 h, 5 μmol/L was determined as 1.2 ×10⁻⁶ cm/s; the Papp B→A at 2 h, 5 μmol/L worked out at 0.39 ×10⁻⁶ cm/s; the efflux ratio at 2 h, 5 μmol/L was 0.33. This molecule also registered an EC50 in series [1] of 1110 nM. In the series on SARS-CoV-2 Omicron BA.5, this molecule registered an EC50 of 1910 nM. This molecule also had an EC50 with SARS-CoV-2 Delta of 1860 nM. Further, in [2], the “solubility at the effective dose” value is given as “superior solubility”. Moreover, the EC50 in series [3] came to 820 nM. Besides, the EC50 in the series with SARS-CoV-2 WT [4] was determined as 430 nM. Further, in series [7] (iv, i.v. 5 mg/kg), the AUC(0-t) came out at 16300 ± 1980 ng·h/mL, the Cmax was 4160 ± 79.4 ng/mL, the Tmax worked out at 0.033 h and the half-life is 39.6 ± 13.5 h. Besides, the bioavailability in series [7] (oral, i.g. 10 mg/kg vs i.v. 5 mg/kg, read-out: oral bioavailability (F)) was determined as 7.1%. Besides, in series [7] (po, i.g. 10 mg/kg), the AUC(0-t) is 2320 ng·h/mL, the Cmax was found to be 241 ng/mL, the Tmax came to 2 h and the half-life is 15.2 h. Further, the “lung live viral titers vs Virus group” value with SARS-CoV-2 WT [5] (150 mg/kg oral) was “no significant difference”. Moreover, in the series with SARS-CoV-2 WT [5] (300 mg/kg oral), the “body weight of infected mice” value is reported as “weight recovery” and the “lung live viral titers vs Virus group” value is on record as “significant decrease”. Moreover, in the series on SARS-CoV-2 WT [5] (300 mg/kg oral, P > 0.05), the “antiviral efficacy compared with positive control PF-07321332 (300 mg/kg)” value is given as “equivalent to that of PF-07321332; also recorded: comparable to that of PF-07321332”. In series [8], this molecule came in with a CC50 at 48 h of over 100000 nM. This molecule also came in with a 50% effective concentration (EC50) in the series with SARS-CoV-2 Omicron BA.4 of 1890 nM. Also, the “histology of lung, heart, spleen, liver and kidney” value in series [9] is recorded as “No obvious histological changes”. Besides, in series [9] (14 days), the “acute oral toxicity, overall finding” value is listed as “safe” and the “body weight vs control group” value was “no significant difference”.
`Nc1cc(N2CCCCC2)nc(N)[n+]1[O-]` [Minoxidil]: in the series on Caco-2 cells (Caco-2, 5 µmol/L, Table S3), the “Papp (A–B)” value was 5.94 10-6, cm/s. In addition, in series [6] (Caco-2, 5 μmol/L), the Papp A→B at 2 h, 5 μmol/L stood at 5.94 ×10⁻⁶ cm/s and the efflux ratio at 2 h, 5 μmol/L is 0.96. In [6] (Caco-2, 5 µmol/L, Table S3), this molecule came in with an apparent permeability from basolateral to apical (Papp B→A) at 2 h, 5 μmol/L of 5.71 ×10⁻⁶ cm/s.
With `C[C@H]1O[C@@H](O[C@H]2[C@@H](O)C[C@H](O[C@H]3[C@@H](O)C[C@H](O[C@H]4CC[C@@]5(C)[C@H](CC[C@@H]6[C@@H]5C[C@@H](O)[C@]5(C)[C@@H](C7=CC(=O)OC7)CC[C@]65O)C4)O[C@@H]3C)O[C@@H]2C)C[C@H](O)[C@@H]1O` [Digoxin], the efflux ratio at 2 h, 5 μmol/L in [6] (Caco-2, 5 μmol/L) came to 29.6. Further, in series [6] (Caco-2, 5 µmol/L, Table S3), the Papp A→B at 2 h, 5 μmol/L is 0.68 ×10⁻⁶ cm/s and the Papp B→A at 2 h, 5 μmol/L worked out at 20.2 ×10⁻⁶ cm/s.
